Test results reported in US9206173B2, “Heterocyclic compounds for the treatment of stress-related conditions” (OTSUKA PHARMACEUTICAL CO., LTD., priority 2009, dated 2015).
pKi: −log10 of the molar value. Structures can show the parent of a compound that is named as a salt.

Molecular target: human GPR10 (Homo sapiens (Human), UniProt P49683)
Assay: Inhibitory activity on binding of [3H]-PrRP to GPR10 (HEK 293 cell membrane fraction)
Settings: [3H]-PrRP 1 nM, human GPR10-expressing HEK 293 cell membrane fraction; Ki from IC50 by Cheng-Prussoff formula
Description: Inhibitory Activity on Binding of [^3H]-PrRP to GPR10
Human GPR10 receptor expressing human embryonic kidney cells, HEK 293 cells, were cultured in Dulbecco's Modified Eagle's medium supplemented with 10% fetal bovine serum and 1% penicilline-streptmycin at 37° C., in 5% carbon dioxide gas conditions. The medium was removed and the cells were recovered in a phosphate buffer to prepare a cell suspension. The cell suspension was homogenated on ice by an ultrasonic cell homogenizer (Microson™ type XL200) and centrifuged at 40,000 g for 10 minutes at 4° C. After the supernatant was discarded, Buffer A (20 mM HEPES, 10 mM EDTA, 1 μl/ml protease inhibiting cocktail, pH 7.4) was added to the pellet. The pellet was suspended by the ultrasonic cell homogenizer, then the suspension was centrifuged at 40,000 g, for 10 minutes at 4° C. After this operation was repeated once again, the supernatant was discarded, Buffer B (20 mM HEPES, 0.1 mM EDTA, pH 7.4) was added to the pellet, and the pellet was suspended by the ultrasonic homogenizer. This was stored at a freezer of −80° C. as a cell membrane fraction until use in a binding test.
To each well of a 96-well plate, 150 μl of assay buffer (20 mM HEPES, 10 mM EDTA, 1 μl/ml protease inhibiting agent cocktail, pH 7.4), 20 μl of cell membrane fraction, 10 μl of test compound and [^3H]-PrRP (final concentration 1 nM) were added and incubated at room temperature for 90 minutes. After completion of the reaction, using a cell harvester, the cell-membrane fraction sample product was filtered under aspiration by a glass fiber filter plate (Unifilter; GF/B) previously treated with 0.5% polyethylene imine. The filter was washed with a 50 mM Tris hydrochloric acid buffer (pH 7.4) three times. After the filter was dried in a dryer (50° C.) for about 3 hours, 40 μl of liquid scintillation cocktail (MicroScint-O) was added to each well and radio activity was measured by a scintillation counter (Packard Topcount). The radio activity in the presence of an excessive amount of non-labeled PrRP (final concentration: 100 nM) was regarded as non-specific binding.
The binding inhibition rate was calculated based on calculating formula: 100−(radio activity when a compound is added−radio activity of non-specific binding)÷(radio activity when a solvent is added−radio activity of non-specific binding)×100.
An IC50 value was calculated based on the concentration dependent reaction using a non-linear analysis program and a Ki value was calculated using Cheng-Prussoff formula.

Sequence of human GPR10 (P49683 whole entry): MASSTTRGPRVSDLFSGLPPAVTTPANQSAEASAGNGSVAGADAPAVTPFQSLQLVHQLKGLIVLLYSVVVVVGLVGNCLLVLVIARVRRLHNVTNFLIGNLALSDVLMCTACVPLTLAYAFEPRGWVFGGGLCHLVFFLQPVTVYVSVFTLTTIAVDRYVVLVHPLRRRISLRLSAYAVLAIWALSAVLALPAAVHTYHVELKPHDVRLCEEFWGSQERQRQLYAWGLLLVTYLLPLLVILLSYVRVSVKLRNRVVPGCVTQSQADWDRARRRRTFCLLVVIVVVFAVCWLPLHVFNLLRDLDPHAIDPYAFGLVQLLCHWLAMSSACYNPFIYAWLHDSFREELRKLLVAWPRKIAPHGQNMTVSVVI

SMILES	pKi
COn1c(N[C@@H](C)C2CCCCC2)nc2c(c1=O)CN(C(=O)c1ccc(Cl)cc1)CC2 [Example 2470, 6-(4-chlorobenzoyl)-2-((S)-1-cyclohexyl-ethylamino)-3-methoxy-5,6,7,8-tetrahydro-3H-pyrido[4,3-d]pyrimidin-4-one]	6.97
CC(C)COn1c(N[C@@H](C)c2ccc(C(F)(F)F)cc2)nc2c(c1=O)CN(C(=O)c1ccc(C#N)cc1F)CC2 [Example 2416, 3-fluoro-4-{3-isobutoxy-4-oxo-2-[(S)-1-(4-trifluoromethylphenyl)ethylamino]-3,5,7,8-tetrahydro-4H-pyrido[4,3-d]pyrimidine-6-carbonyl}benzonitrile]	7.48
CCOc1ccc(CNc2nc3c(c(=O)n2OC)CN(C(=O)c2ccc(C#N)cc2F)CC3)cc1 [Example 2490, 4-[2-(4-ethoxybenzylamino)-3-methoxy-4-oxo-3,5,7,8-tetrahydro-4H-pyrido[4,3-d]pyrimidine-6-carbonyl]-3-fluorobenzonitrile]	6.63
C#CCCn1c(N[C@@H](C)c2ccc(C(F)(F)F)cc2)nc2c(c1=O)CN(C(=O)c1nc3ccccc3[nH]1)CC2 [Example 2458, 6-(1H-benzoimidazole-2-carbonyl)-3-(3-butynyl)-2-[(S)-1-(4-trifluoromethylphenyl)ethylamino]-5,6,7,8-tetrahydro-3H-pyrido[4,3-d]pyrimidin-4-one]	6.61
CC#CCn1c(N[C@@H](C)c2ccc(C(F)(F)F)cc2)nc2c(c1=O)CN(C(=O)c1ccc3c(c1)OCO3)CC2 [Example 2444, 6-(benzo[1,3]dioxole-5-carbonyl)-3-(2-butynyl)-2-[(S)-1-(4-trifluoromethylphenyl)ethylamino]-5,6,7,8-tetrahydro-3H-pyrido[4,3-d]pyrimidin-4-one]	7.38

More lines, now with the values ahead:

pKi	SMILES
7.59	C#CCCn1c(N[C@@H](C)c2ccc(C(F)(F)F)cc2)nc2c(c1=O)CN(C(=O)c1ccc(-c3cnco3)cc1)CC2 [Example 2438, 3-(3-butynyl)-6-(4-oxazol-5-ylbenzoyl)-2-[(S)-1-(4-trifluoromethylphenyl)ethylamino]-5,6,7,8-tetrahydro-3H-pyrido[4,3-d]pyrimidin-4-one]
7.47	COn1c(N2CCCC2c2ccc(C(F)(F)F)cc2)nc2c(c1=O)CN(C(=O)c1ccc(Cl)cc1)CC2 (centres unmarked) [Example 2475, 6-(4-chlorobenzoyl)-3-methoxy-2-[2-(4-trifluoromethylphenyl)pyrrolidin-1-yl]-5,6,7,8-tetrahydro-3H-pyrido[4,3-d]pyrimidin-4-one]
7.41	COn1c(NCc2ccc(C(F)(F)F)cc2)nc2c(c1=O)CN(C(=O)c1ccc(Cl)cc1)CC2 [Example 2477, 6-(4-chlorobenzoyl)-3-methoxy-2-(4-trifluoromethylbenzylamino)-5,6,7,8-tetrahydro-3H-pyrido[4,3-d]pyrimidin-4-one hydrochloride]
7.64	CC#CCn1c(N[C@@H](C)c2ccc(C(F)(F)F)cc2)nc2c(c1=O)CN(C(=O)c1ccc(OC)cc1)CC2 [Example 2448, 3-(2-butynyl)-6-(4-methoxybenzoyl)-2-[(S)-1-(4-trifluoromethylphenyl)ethylamino]-5,6,7,8-tetrahydro-3H-pyrido[4,3-d]pyrimidin-4-one]
7.59	COn1c(N[C@H](c2ccc(Cl)cc2)C(C)C)nc2c(c1=O)CN(C(=O)c1cc3ccccc3cn1)CC2 [Example 2489, 2-[(S)-1-(4-chlorophenyl)-2-methylpropylamino]-6-(isoquinoline-3-carbonyl)-3-methoxy-5,6,7,8-tetrahydro-3H-pyrido[4,3-d]pyrimidin-4-one]
7.82	COn1c(N[C@@H](C)c2ccc(C(F)(F)F)cc2)nc2c(c1=O)CN(C(=O)c1cc3ccccc3s1)CC2 [Example 2474, 6-(benzo[b]thiophene-2-carbonyl)-3-methoxy-2-[(S)-1-(4-trifluoromethylphenyl)ethylamino]-5,6,7,8-tetrahydro-3H-pyrido[4,3-d]pyrimidin-4-one]
